Experimental data reported in PMC8518066, “Efficient Entropy‐Driven Inhibition of Dipeptidyl Peptidase III by Hydroxyethylene Transition‐State Peptidomimetics” (Chemistry (Weinheim an Der Bergstrasse, Germany), 2021).
Numbering of substitutions follows the chain as printed. Where two headings read alike, the source gives them in different places. Blank lines part the entries; values can stand above or below the molecule they belong to.

How the values were obtained:
hDPP3 [1] = biological target: T1, hDPP3 (Homo sapiens, UniProt Q9NY33); assay: Fluorescence-based competitive enzyme inhibition assay (degradation of H-Arg-Arg-βNA substrate); format: biochemical; details: for IC50: hDPP3, H-Arg-Arg-βNA substrate, 37 °C, pH 8.0
T1 construct: His6 (cleaved yes); made in house; host or cells: E. coli BL21-CodonPlus (DE3) RIL
T1 sequence (Q9NY33 1-726): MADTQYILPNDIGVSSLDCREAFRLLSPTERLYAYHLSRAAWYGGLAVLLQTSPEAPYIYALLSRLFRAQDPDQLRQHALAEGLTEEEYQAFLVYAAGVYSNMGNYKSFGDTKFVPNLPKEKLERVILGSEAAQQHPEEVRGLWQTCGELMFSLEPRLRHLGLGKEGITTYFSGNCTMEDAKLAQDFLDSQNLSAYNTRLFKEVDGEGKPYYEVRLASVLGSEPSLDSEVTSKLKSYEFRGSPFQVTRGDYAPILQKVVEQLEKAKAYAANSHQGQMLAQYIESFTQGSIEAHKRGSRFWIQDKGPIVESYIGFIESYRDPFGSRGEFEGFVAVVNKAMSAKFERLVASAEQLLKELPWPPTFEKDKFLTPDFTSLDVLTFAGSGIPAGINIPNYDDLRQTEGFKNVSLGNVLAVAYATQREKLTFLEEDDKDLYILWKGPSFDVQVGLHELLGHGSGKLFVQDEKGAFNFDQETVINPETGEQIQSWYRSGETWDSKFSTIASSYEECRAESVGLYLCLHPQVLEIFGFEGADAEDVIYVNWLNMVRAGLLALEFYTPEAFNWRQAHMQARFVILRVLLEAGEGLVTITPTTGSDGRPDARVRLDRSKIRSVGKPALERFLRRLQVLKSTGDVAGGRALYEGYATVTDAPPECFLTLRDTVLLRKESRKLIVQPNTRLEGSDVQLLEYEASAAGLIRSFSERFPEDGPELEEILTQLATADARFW

placental DPP3 = tested on: placental DPP3; set-up: method as in PMID 9711218; details: placental DPP3, H-Arg-Arg-βNA substrate; cited from earlier work
Mammalian DPP3 = tested on: Mammalian DPP3; set-up: method as in PMID 7931295, PMID 9425109; details: cited from earlier work
[2] = tested on: DPP3 in mouse brain homogenate; assay: Ex vivo DPP3 inhibition in mouse brain homogenate; format: biochemical; details: Figure SI1
hDPP3 [3] = biological target: T1, hDPP3; assay: Time-dependent inhibition of hDPP3 by tynorphin and HER; format: biochemical; details: inhibitor at 5 times IC50, room temperature, 0-24 h
hDPP3 [4] = biological target: T1, hDPP3; assay: Thermal shift assay (Thermofluor); format: binding; details: 10 µM hDPP3, 50 µM HER
[5] = biological target: T2, hDPP3 (inactive variant E451A) (Homo sapiens, UniProt Q9NY33, E451A); assay: Isothermal titration calorimetry (ITC); format: binding; details: mean of three independent measurements; for Kd: hDPP3 E451A, 298 K
T2 construct: His6 (cleaved yes); made in house; host or cells: E. coli BL21-CodonPlus (DE3) RIL
T2 sequence (Q9NY33 1-726 E451A): T1 sequence (Q9NY33 1-726) with E451A

- melting point: 168 to 170 °C
Molecule: CC(C)[C@H](N)C(=O)N[C@@H](C(C)C)[C@H](O)C[C@@H](Cc1ccc(F)cc1)C(=O)N1CCC[C@H]1C(=O)N[C@@H](Cc1c[nH]c2ccccc12)C(=O)O

- melting point: 160 to 162 °C
Molecule: Cc1ccc(C[C@H](C[C@@H](O)[C@@H](NC(=O)[C@@H](N)C(C)C)C(C)C)C(=O)N2CCC[C@H]2C(=O)N[C@@H](Cc2c[nH]c3ccccc23)C(=O)O)cc1

- melting point: 172 to 174 °C
Molecule: CC(C)[C@H](N)C(=O)N[C@@H](C(C)C)[C@H](O)C[C@@H](Cc1ccc(O)cc1)C(=O)N1CCC[C@H]1C(=O)N[C@@H](Cc1c[nH]c2ccccc12)C(=O)O

- IC50 (hDPP3 [1]): 34.4 µM
- melting point: 160 to 162 °C
Molecule: CC(C)[C@H](N)C(=O)N[C@@H](C(C)C)[C@H](O)C[C@@H](Cc1ccccc1)C(=O)N1CCCC[C@H]1C(=O)N[C@@H](Cc1c[nH]c2ccccc12)C(=O)O [37 a]

- melting point: 164 to 166 °C
Molecule: CC(C)[C@H](NC(=O)[C@@H](N)C(C)(C)C)[C@H](O)C[C@@H](Cc1ccccc1)C(=O)N1CCCC[C@H]1C(=O)N[C@@H](Cc1c[nH]c2ccccc12)C(=O)O [37 b]

Molecule: CC1C(=O)c2cc(O)c3c(c2C(O)C1O)C(=O)c1cccc(O)c1-3 (stereo not shown) [B, fluostatins A and B]
- IC50 (placental DPP3): 74 µM

Molecule: O=c1oc(Cl)c(Cl)c2ccccc12 [DCI, 3,4‐dichloroisocoumarin]
- inhibition of mammalian DPP3 (Mammalian DPP3; covalently binding serine peptidase inhibitors): significantly inhibited

- Melting temperature (Tm) of hDPP3+HER (hDPP3 [4]; t=0 h of incubation): 57.5 °C
- Melting temperature (Tm) of hDPP3+HER (hDPP3 [4]; t=24 h of incubation): 57 °C
- potency relative to SHE (IC50 ratio) (hDPP3 [1]; HER versus SHE): 7 fold
- IC50 (hDPP3 [1]): 13.8 µM
- Kd [5]: 11 µM
- -TΔS [5]: -16.0 kcal/mol
- ΔH [5]: 10.7 kcal/mol
- melting point: 148 to 152 °C
Molecule: CC(C)C(N)C(=O)NC(C(C)C)C(O)CC(Cc1ccccc1)C(=O)N1CCCC1C(=O)NC(Cc1c[nH]c2ccccc12)C(=O)O (stereo not shown) [HER]
- inhibition of DPP3 in mouse brain homogenate [2]: efficiently inhibit DPP3 in mouse brain homogenate without losing much of its potency
- time-dependent inhibition of hDPP3 (stability against the peptidase) (hDPP3 [3]): efficiently inhibit the activity over a period of 24 h

Molecule: O=S(=O)(F)Cc1ccccc1 [PMSF, phenylmethanesulfonylfluoride]
- inhibition of mammalian DPP3 (Mammalian DPP3): significantly inhibited

- IC50 (hDPP3 [1]): 98.5 µM
- Kd [5]: 23 µM
- -TΔS [5]: -8.1 kcal/mol
- ΔH [5]: 2.3 kcal/mol
Molecule: CC(C)[C@H](N)C(=O)N[C@@H](C(C)C)[C@@H](O)C[C@@H](Cc1ccccc1)C(=O)N1CCC[C@H]1C(=O)N[C@@H](Cc1c[nH]c2ccccc12)C(=O)O [SHE]

Molecule: Cc1ccc(S(=O)(=O)N[C@@H](Cc2ccccc2)C(=O)CCl)cc1 [TPCK, tosyl‐phenylalanyl chloromethyl ketone]
- inhibition of mammalian DPP3 (Mammalian DPP3): significantly inhibited

- IC50 (hDPP3 [1]): 17.9 µM
- melting point: 148 to 150 °C
Molecule: COC(=O)[C@H](Cc1c[nH]c2ccccc12)NC(=O)[C@@H]1CCCN1C(=O)[C@H](Cc1ccc(O)cc1)C[C@@H](O)[C@@H](NC(=O)[C@@H](N)C(C)C)C(C)C [compound 32]

Molecule: Cc1cc(=O)c2c(cc(O)c3c4c(O)cccc4c(=O)c32)c1=O [fluostatins A]
- IC50 (placental DPP3): 1.44 µM

Molecule: tynorphin [reference compound]
- time-dependent inhibition of hDPP3 (stability against the peptidase) (hDPP3 [3]): lost its efficacy within the first hour
